{
  "source": "paper PMC7005530",
  "about": "“A selective androgen receptor modulator SARM‐2f activates androgen receptor, increases lean body mass, and suppresses blood lipid levels in cynomolgus monkeys” (Pharmacology Research & Perspectives, 2020)",
  "key": {"[1]": {"settings": "TE intramuscular 20 mg/kg, monkeys, cited from earlier work"}, "[2]": {"experiment": "Plasma lipid levels after 4-week treatment", "assay_type": "in vivo, cynomolgus monkey", "settings": "after 4 wks; SARM‐2f 1, 3, 10 mg/kg daily p.o.; TE 2 mg/kg every 2 wks; vs vehicle", "experimental": "The monkeys were divided into five groups by weight randomization (MiTOX system ver2.0, Mitsui E & S Systems Research Inc) on the last day of the habituation period. SARM‐2f was orally administered at daily doses of 1, 3, or 10 mg/kg for 4 weeks between 9:00 and 11:00 hours, using 0.5% w/v methylcellulose as the vehicle. TE was injected intramuscularly on Day 0 and Day 13; the dosing start was set at Day 0 at a dose of 2 mg/kg using sesame oil as the vehicle. The route of administration and dose of TE was selected according to the route and dose mentioned in the clinical indications. BW was measured every week before dosing (between 8:30 and 9:00 hours), and LBM was measured every 2 weeks after dosing and before feeding (between 11:30 and 14:30 hours) using an X‐ray bone density measuring device (Discovery, HOLOGIC USA). Blood collection for lipid profiles was conducted on the day after the completion of the four‐week multiple administration of SARM‐2f or TE. Plasma levels of total cholesterol (T‐chol), HDL‐c, low‐density lipoprotein cholesterol (LDL‐c), triglyceride (TG), alanine aminotransferase (ALT), and […] (AST) were measured by an automatic JCA‐BM8 analysis system (JEOL Ltd.). Plasma lipoprotein (a) (Lp (a)) levels were measured using a multiplate absorbance measuring system (Multiscan Ascent, Thermo Fisher Scientific KK). […]"}, "[3]": {"experiment": "Liver function tests (AST, ALT) after 4-week treatment", "assay_type": "in vivo, cynomolgus monkey", "settings": "after 4 wks; SARM‐2f 1, 3, 10 mg/kg daily p.o.; TE 2 mg/kg every 2 wks; vs vehicle", "experimental": "The monkeys were divided into five groups by weight randomization (MiTOX system ver2.0, Mitsui E & S Systems Research Inc) on the last day of the habituation period. SARM‐2f was orally administered at daily doses of 1, 3, or 10 mg/kg for 4 weeks between 9:00 and 11:00 hours, using 0.5% w/v methylcellulose as the vehicle. TE was injected intramuscularly on Day 0 and Day 13; the dosing start was set at Day 0 at a dose of 2 mg/kg using sesame oil as the vehicle. The route of administration and dose of TE was selected according to the route and dose mentioned in the clinical indications. BW was measured every week before dosing (between 8:30 and 9:00 hours), and LBM was measured every 2 weeks after dosing and before feeding (between 11:30 and 14:30 hours) using an X‐ray bone density measuring device (Discovery, HOLOGIC USA). Blood collection for lipid profiles was conducted on the day after the completion of the four‐week multiple administration of SARM‐2f or TE. Plasma levels of total cholesterol (T‐chol), HDL‐c, low‐density lipoprotein cholesterol (LDL‐c), triglyceride (TG), alanine aminotransferase (ALT), and […] (AST) were measured by an automatic JCA‐BM8 analysis system (JEOL Ltd.). Plasma lipoprotein (a) (Lp (a)) levels were measured using a multiplate absorbance measuring system (Multiscan Ascent, Thermo Fisher Scientific KK).\n(§1) In the reporter assays, EC50 was calculated using Graph Pad Prism version 6. The effects of SARM‐2f or TE on BW and LBM were analyzed by t test, with Bonferroni correction for repeated measurements."}, "rat AR": {"target": "T1, rat AR (Rattus norvegicus, UniProt P15207)", "T1 construct": "expressed in transfected cells; host or cells: COS7", "T1 sequence (P15207 1-902)": "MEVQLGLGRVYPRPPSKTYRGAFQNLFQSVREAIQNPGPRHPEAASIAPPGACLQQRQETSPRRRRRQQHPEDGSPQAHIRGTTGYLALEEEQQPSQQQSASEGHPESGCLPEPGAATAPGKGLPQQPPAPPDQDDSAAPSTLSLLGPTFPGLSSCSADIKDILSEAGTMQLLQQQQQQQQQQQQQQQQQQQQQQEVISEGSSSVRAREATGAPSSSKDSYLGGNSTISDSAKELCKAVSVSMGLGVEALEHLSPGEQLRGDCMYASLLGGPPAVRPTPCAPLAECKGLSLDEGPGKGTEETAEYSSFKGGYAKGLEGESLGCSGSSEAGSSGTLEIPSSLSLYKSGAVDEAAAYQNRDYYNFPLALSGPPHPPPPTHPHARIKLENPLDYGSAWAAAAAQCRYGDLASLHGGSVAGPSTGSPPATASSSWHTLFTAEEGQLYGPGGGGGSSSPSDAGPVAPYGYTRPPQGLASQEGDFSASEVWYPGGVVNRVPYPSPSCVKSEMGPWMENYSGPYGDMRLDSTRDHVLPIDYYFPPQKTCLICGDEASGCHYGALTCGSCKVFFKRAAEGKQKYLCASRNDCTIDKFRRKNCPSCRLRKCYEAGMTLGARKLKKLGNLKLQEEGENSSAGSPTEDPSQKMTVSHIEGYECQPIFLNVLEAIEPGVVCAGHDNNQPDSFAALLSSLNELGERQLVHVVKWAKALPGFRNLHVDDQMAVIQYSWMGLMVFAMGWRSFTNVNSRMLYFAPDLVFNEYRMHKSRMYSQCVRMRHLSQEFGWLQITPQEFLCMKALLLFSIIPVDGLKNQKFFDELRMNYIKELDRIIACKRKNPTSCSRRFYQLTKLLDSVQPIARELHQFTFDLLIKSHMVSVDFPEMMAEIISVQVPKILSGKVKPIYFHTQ", "experiment": "AR reporter assay (MMTV-luc) in COS7 cells expressing rat AR", "assay_type": "cell-based", "set-up": "Emax: dose or concentration left out as unconfirmed", "experimental": "(§2) Two hours post‐transfection, the cells were plated in 96‐well plates at a density of 2 × 10^4 cells/well, and cultured at 37°C for 3 hours. […] Luciferase activity was measured using the Steady‐Glo Luciferase assay system (Promega) and an Envision Multimode Plate Reader (PerkinElmer).\nas §1"}, "cynomolgus monkey AR": {"target": "T2, cynomolgus monkey AR (Macaca fascicularis, UniProt O97952)", "T2 construct": "expressed in transfected cells; host or cells: COS7", "T2 sequence (O97952 1-895)": "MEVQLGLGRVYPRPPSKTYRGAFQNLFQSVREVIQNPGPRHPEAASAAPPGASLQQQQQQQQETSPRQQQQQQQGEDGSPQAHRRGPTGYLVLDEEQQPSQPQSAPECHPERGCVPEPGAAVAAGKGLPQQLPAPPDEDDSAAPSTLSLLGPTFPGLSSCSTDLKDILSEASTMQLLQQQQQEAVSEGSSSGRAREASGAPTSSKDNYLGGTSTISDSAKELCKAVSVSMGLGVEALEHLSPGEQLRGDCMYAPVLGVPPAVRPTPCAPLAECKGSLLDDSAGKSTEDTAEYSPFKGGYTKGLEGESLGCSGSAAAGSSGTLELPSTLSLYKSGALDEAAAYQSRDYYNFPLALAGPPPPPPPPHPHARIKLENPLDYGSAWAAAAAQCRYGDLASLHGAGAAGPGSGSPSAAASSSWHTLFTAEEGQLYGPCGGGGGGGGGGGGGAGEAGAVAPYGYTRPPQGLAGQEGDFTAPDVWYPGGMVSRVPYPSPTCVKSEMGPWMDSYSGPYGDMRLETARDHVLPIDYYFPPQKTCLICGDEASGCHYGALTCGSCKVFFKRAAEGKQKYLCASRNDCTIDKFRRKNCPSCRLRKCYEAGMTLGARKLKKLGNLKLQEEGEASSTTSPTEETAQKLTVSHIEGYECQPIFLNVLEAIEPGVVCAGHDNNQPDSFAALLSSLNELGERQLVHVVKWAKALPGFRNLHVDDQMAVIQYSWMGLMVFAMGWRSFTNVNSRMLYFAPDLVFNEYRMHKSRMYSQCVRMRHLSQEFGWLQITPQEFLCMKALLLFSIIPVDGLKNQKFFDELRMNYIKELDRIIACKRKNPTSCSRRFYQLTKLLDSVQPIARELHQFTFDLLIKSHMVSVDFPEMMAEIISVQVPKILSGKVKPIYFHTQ", "experiment": "AR reporter assay (MMTV-luc) in COS7 cells expressing monkey AR", "assay_type": "cell-based", "experimental": "as §2, §1"}, "human AR": {"target": "T3, human AR (Homo sapiens, UniProt P10275)", "T3 construct": "expressed in transfected cells; host or cells: COS7", "T3 sequence (P10275 1-920)": "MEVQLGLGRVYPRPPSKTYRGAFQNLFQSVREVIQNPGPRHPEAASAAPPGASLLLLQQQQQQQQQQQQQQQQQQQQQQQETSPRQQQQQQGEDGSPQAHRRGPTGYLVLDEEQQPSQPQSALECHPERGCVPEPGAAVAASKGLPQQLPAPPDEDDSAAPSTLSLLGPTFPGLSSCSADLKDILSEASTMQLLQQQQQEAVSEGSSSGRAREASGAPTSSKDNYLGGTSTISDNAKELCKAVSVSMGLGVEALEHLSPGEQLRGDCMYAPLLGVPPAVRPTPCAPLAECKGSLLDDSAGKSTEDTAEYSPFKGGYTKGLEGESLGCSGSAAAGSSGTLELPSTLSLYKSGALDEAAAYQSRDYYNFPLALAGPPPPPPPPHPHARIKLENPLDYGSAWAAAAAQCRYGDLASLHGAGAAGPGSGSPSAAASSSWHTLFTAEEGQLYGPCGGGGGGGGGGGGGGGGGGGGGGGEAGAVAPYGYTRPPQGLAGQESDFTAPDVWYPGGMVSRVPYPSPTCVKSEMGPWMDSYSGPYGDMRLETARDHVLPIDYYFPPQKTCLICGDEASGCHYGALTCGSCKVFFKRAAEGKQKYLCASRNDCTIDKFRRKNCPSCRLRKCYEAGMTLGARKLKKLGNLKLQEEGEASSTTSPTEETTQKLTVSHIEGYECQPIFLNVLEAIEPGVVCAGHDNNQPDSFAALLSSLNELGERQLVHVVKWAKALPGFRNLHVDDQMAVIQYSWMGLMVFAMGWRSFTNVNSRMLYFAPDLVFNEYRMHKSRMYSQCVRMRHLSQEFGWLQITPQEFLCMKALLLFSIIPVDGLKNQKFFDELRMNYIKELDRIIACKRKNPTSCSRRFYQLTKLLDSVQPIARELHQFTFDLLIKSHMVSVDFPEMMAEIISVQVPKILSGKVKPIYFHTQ", "experiment": "AR reporter assay (MMTV-luc) in COS7 cells expressing human AR", "assay_type": "cell-based", "set-up": "Emax: dose or concentration left out as unconfirmed", "settings": "COS-7, read-out: maximal activation level", "experimental": "as §2, §1"}},
  "data": [
    {"smiles": "CCCCCCC(=O)O[C@H]1CC[C@H]2[C@@H]3CCC4=CC(=O)CC[C@]4(C)[C@H]3CC[C@]12C", "note": "[TE, Testosterone enanthate, reference compound]", "values": [
      {"measurement": "effect on BW", "setting": "[1]; within 4 weeks", "result": "significantly increasing the BW"},
      {"measurement": "blood testosterone nadir levels", "setting": "[1]", "result": "approximately 1500 ng/dL"},
      {"measurement": "Blood level of HDL‐c", "setting": "[2]", "result": "did not affect"},
      {"measurement": "Blood level of LDL‐c", "setting": "[2]", "result": "increase the LDL‐c level significantly"},
      {"measurement": "Blood level of TG", "setting": "[2]", "result": "did reduce the TG level"},
      {"measurement": "Blood level of T‐chol", "setting": "[2]", "result": "did not affect"},
      {"measurement": "Lp (a) protein level", "setting": "[2]", "result": "did not affect"},
      {"measurement": "Blood level of ALT", "setting": "[3]", "result": "not changed"},
      {"measurement": "Blood level of AST", "setting": "[3]", "result": "not changed"}
    ]},
    {"smiles": "C[C@](O)(COc1ccc(C#N)cc1)C(=O)Nc1ccc(C#N)c(C(F)(F)F)c1", "note": "[ostarine, reference compound]", "values": [
      {"measurement": "EC50", "setting": "rat AR", "result": 2.5, "unit": "nM"},
      {"measurement": "Emax", "setting": "rat AR; COS-7, read-out: maximal activation", "result": 112, "unit": "%"},
      {"measurement": "EC50", "setting": "cynomolgus monkey AR", "result": 2.2, "unit": "nM"},
      {"measurement": "maximal AR activation", "setting": "cynomolgus monkey AR; monkey AR, at 1 μmol/L, 1 μmol/L DHT = 100%", "result": 126, "unit": "%"},
      {"measurement": "Emax", "setting": "human AR", "result": 141, "unit": "%"}
    ]}
  ]
}
